In the NIST ThermoML archive (doi:10.1016/j.fluid.2014.11.020):
Numbers after ± are expanded uncertainties.

Assay: activity coefficient (dimensionless); of the first substance listed, at infinite dilution; xn = mol fraction of the nth substance listed
Details: Liquid, Chromatography, x1 = 0

SMILES | activity coefficient (323.15 K) | activity coefficient (333.15 K) | activity coefficient (343.15 K)
CC(C)CO [2-methyl-1-propanol] + Cn1cc[n+](COCCCOC[n+]2ccn(C)c2)c1.N#C[N-]C#N.N#C[N-]C#N | 1.94 ± 0.13 | 1.81 ± 0.12 | 1.73 ± 0.12
CC(C)CO [2-methyl-1-propanol] + Cn1cc[n+](COCCCOC[n+]2ccn(C)c2)c1.O=S(=O)([N-]S(=O)(=O)C(F)(F)F)C(F)(F)F.O=S(=O)([N-]S(=O)(=O)C(F)(F)F)C(F)(F)F | 1.87 ± 0.13 | 1.71 ± 0.11 | 1.5 ± 0.1
CC(C)CO [2-methyl-1-propanol] + N#C[N-]C#N.N#C[N-]C#N.c1ccc(Cn2cc[n+](COCCCOC[n+]3ccn(Cc4ccccc4)c3)c2)cc1 | 1.79 ± 0.12 | 1.67 ± 0.11 | 1.61 ± 0.11
CCC(C)CC [3-methylpentane] + CCCCCCCCn1cc[n+](COCCC)c1C.N#C[N-]C#N | 6.65 ± 0.45 | 5.7 ± 0.39 | 6.25 ± 0.43
CCC(C)CC [3-methylpentane] + CCCCCCCCn1cc[n+](COCCC)c1C.O=S(=O)([N-]S(=O)(=O)C(F)(F)F)C(F)(F)F | 3.57 ± 0.24 | 3.42 ± 0.23 | 3.05 ± 0.21
CCC(C)CC [3-methylpentane] + CCCCCCCCn1cc[n+](COCCCOC[n+]2ccn(CCCCCCCC)c2C)c1C.N#C[N-]C#N.N#C[N-]C#N | 3.48 ± 0.24 | – | –
CCC(C)CC [3-methylpentane] + CCCCCCCCn1cc[n+](COCCCOC[n+]2ccn(CCCCCCCC)c2C)c1C.O=S(=O)([N-]S(=O)(=O)C(F)(F)F)C(F)(F)F.O=S(=O)([N-]S(=O)(=O)C(F)(F)F)C(F)(F)F | 3.59 ± 0.24 | 3.36 ± 0.23 | 3.13 ± 0.21
CCC(C)CC [3-methylpentane] + CCCOC[n+]1ccc(N(C)C)cc1.O=S(=O)([N-]S(=O)(=O)C(F)(F)F)C(F)(F)F | 9.61 ± 0.66 | 9.48 ± 0.65 | 9.24 ± 0.63
CCC(C)CC [3-methylpentane] + CCCOC[n+]1ccn(C)c1.O=S(=O)([N-]S(=O)(=O)C(F)(F)F)C(F)(F)F | 14.4 ± 0.98 | 10.8 ± 0.74 | –
CCC(C)CC [3-methylpentane] + CCCOC[n+]1ccn(Cc2ccccc2)c1.N#C[N-]C#N | 28.5 ± 1.9 | – | –
CCC(C)CC [3-methylpentane] + CCCOC[n+]1ccn(Cc2ccccc2)c1.O=S(=O)([N-]S(=O)(=O)C(F)(F)F)C(F)(F)F | 8.01 ± 0.55 | 6.59 ± 0.45 | 5.91 ± 0.4
CCC(C)CC [3-methylpentane] + Cn1cc[n+](COCCCOC[n+]2ccn(C)c2)c1.O=S(=O)([N-]S(=O)(=O)C(F)(F)F)C(F)(F)F.O=S(=O)([N-]S(=O)(=O)C(F)(F)F)C(F)(F)F | 39.2 ± 2.7 | 14.4 ± 1 | –
CC#N [acetonitrile] + CCCCCCCCn1cc[n+](COCCC)c1C.N#C[N-]C#N | 0.72 ± 0.05 | 0.7 ± 0.05 | 0.69 ± 0.05
CC#N [acetonitrile] + CCCCCCCCn1cc[n+](COCCC)c1C.O=S(=O)([N-]S(=O)(=O)C(F)(F)F)C(F)(F)F | 0.48 ± 0.04 | 0.46 ± 0.04 | 0.47 ± 0.04
CC#N [acetonitrile] + CCCCCCCCn1cc[n+](COCCCOC[n+]2ccn(CCCCCCCC)c2C)c1C.N#C[N-]C#N.N#C[N-]C#N | 0.46 ± 0.04 | 0.46 ± 0.04 | 0.45 ± 0.04
CC#N [acetonitrile] + CCCCCCCCn1cc[n+](COCCCOC[n+]2ccn(CCCCCCCC)c2C)c1C.O=S(=O)([N-]S(=O)(=O)C(F)(F)F)C(F)(F)F.O=S(=O)([N-]S(=O)(=O)C(F)(F)F)C(F)(F)F | 0.26 ± 0.03 | 0.25 ± 0.03 | 0.25 ± 0.03
CC#N [acetonitrile] + CCCOC[n+]1ccc(N(C)C)cc1.O=S(=O)([N-]S(=O)(=O)C(F)(F)F)C(F)(F)F | 0.51 ± 0.04 | 0.52 ± 0.04 | 0.52 ± 0.04
CC#N [acetonitrile] + CCCOC[n+]1ccn(C)c1.F[B-](F)(F)F | 0.73 ± 0.05 | 0.74 ± 0.05 | 0.75 ± 0.05
CC#N [acetonitrile] + CCCOC[n+]1ccn(C)c1.N#C[N-]C#N | 0.77 ± 0.05 | 0.78 ± 0.05 | 1.09 ± 0.07
CC#N [acetonitrile] + CCCOC[n+]1ccn(C)c1.O=S(=O)([N-]S(=O)(=O)C(F)(F)F)C(F)(F)F | 0.46 ± 0.04 | 0.46 ± 0.04 | 0.46 ± 0.04
CC#N [acetonitrile] + CCCOC[n+]1ccn(Cc2ccccc2)c1.F[B-](F)(F)F | 0.63 ± 0.04 | 0.63 ± 0.04 | 0.63 ± 0.04
CC#N [acetonitrile] + CCCOC[n+]1ccn(Cc2ccccc2)c1.N#C[N-]C#N | 0.72 ± 0.05 | 0.76 ± 0.05 | 0.77 ± 0.05

SMILES | activity coefficient (323.15 K) | activity coefficient (333.15 K) | activity coefficient (343.15 K)
CC#N [acetonitrile] + CCCOC[n+]1ccn(Cc2ccccc2)c1.O=S(=O)([N-]S(=O)(=O)C(F)(F)F)C(F)(F)F | 0.39 ± 0.03 | 0.34 ± 0.03 | 0.34 ± 0.03
CC#N [acetonitrile] + CN(C)c1cc[n+](COCCCOC[n+]2ccc(N(C)C)cc2)cc1.O=S(=O)([N-]S(=O)(=O)C(F)(F)F)C(F)(F)F.O=S(=O)([N-]S(=O)(=O)C(F)(F)F)C(F)(F)F | 0.37 ± 0.03 | 0.37 ± 0.03 | 0.37 ± 0.03
CC#N [acetonitrile] + Cn1cc[n+](COCCCOC[n+]2ccn(C)c2)c1.N#C[N-]C#N.N#C[N-]C#N | 0.68 ± 0.05 | 0.68 ± 0.05 | 0.69 ± 0.05
CC#N [acetonitrile] + Cn1cc[n+](COCCCOC[n+]2ccn(C)c2)c1.O=S(=O)([N-]S(=O)(=O)C(F)(F)F)C(F)(F)F.O=S(=O)([N-]S(=O)(=O)C(F)(F)F)C(F)(F)F | 0.28 ± 0.03 | 0.28 ± 0.03 | 0.24 ± 0.03
CC#N [acetonitrile] + N#C[N-]C#N.N#C[N-]C#N.c1ccc(Cn2cc[n+](COCCCOC[n+]3ccn(Cc4ccccc4)c3)c2)cc1 | 0.99 ± 0.06 | 0.97 ± 0.06 | 0.98 ± 0.06
c1ccccc1 [benzene] + CCCCCCCCn1cc[n+](COCCC)c1C.N#C[N-]C#N | 1.39 ± 0.09 | 1.23 ± 0.08 | 1.07 ± 0.07
c1ccccc1 [benzene] + CCCCCCCCn1cc[n+](COCCC)c1C.O=S(=O)([N-]S(=O)(=O)C(F)(F)F)C(F)(F)F | 0.6 ± 0.04 | 0.59 ± 0.04 | 0.59 ± 0.04
c1ccccc1 [benzene] + CCCCCCCCn1cc[n+](COCCCOC[n+]2ccn(CCCCCCCC)c2C)c1C.N#C[N-]C#N.N#C[N-]C#N | 0.7 ± 0.05 | 0.71 ± 0.05 | 0.71 ± 0.05
c1ccccc1 [benzene] + CCCCCCCCn1cc[n+](COCCCOC[n+]2ccn(CCCCCCCC)c2C)c1C.O=S(=O)([N-]S(=O)(=O)C(F)(F)F)C(F)(F)F.O=S(=O)([N-]S(=O)(=O)C(F)(F)F)C(F)(F)F | 0.42 ± 0.04 | 0.41 ± 0.03 | 0.41 ± 0.03
c1ccccc1 [benzene] + CCCOC[n+]1ccc(N(C)C)cc1.O=S(=O)([N-]S(=O)(=O)C(F)(F)F)C(F)(F)F | 0.74 ± 0.05 | 0.78 ± 0.05 | 0.78 ± 0.05
c1ccccc1 [benzene] + CCCOC[n+]1ccn(C)c1.F[B-](F)(F)F | 3.51 ± 0.24 | 3.45 ± 0.23 | 3.46 ± 0.24
c1ccccc1 [benzene] + CCCOC[n+]1ccn(C)c1.N#C[N-]C#N | 2.25 ± 0.15 | 2.27 ± 0.15 | 2.29 ± 0.16
c1ccccc1 [benzene] + CCCOC[n+]1ccn(C)c1.O=S(=O)([N-]S(=O)(=O)C(F)(F)F)C(F)(F)F | 1.2 ± 0.08 | 1.17 ± 0.07 | 1.17 ± 0.07
c1ccccc1 [benzene] + CCCOC[n+]1ccn(Cc2ccccc2)c1.F[B-](F)(F)F | 2.01 ± 0.14 | 2 ± 0.14 | 1.99 ± 0.14
c1ccccc1 [benzene] + CCCOC[n+]1ccn(Cc2ccccc2)c1.N#C[N-]C#N | 1.51 ± 0.1 | 1.5 ± 0.1 | 1.5 ± 0.1
c1ccccc1 [benzene] + CCCOC[n+]1ccn(Cc2ccccc2)c1.O=S(=O)([N-]S(=O)(=O)C(F)(F)F)C(F)(F)F | 0.81 ± 0.05 | 0.71 ± 0.05 | 0.71 ± 0.05
c1ccccc1 [benzene] + CN(C)c1cc[n+](COCCCOC[n+]2ccc(N(C)C)cc2)cc1.O=S(=O)([N-]S(=O)(=O)C(F)(F)F)C(F)(F)F.O=S(=O)([N-]S(=O)(=O)C(F)(F)F)C(F)(F)F | 0.66 ± 0.05 | 0.67 ± 0.05 | 0.68 ± 0.05
c1ccccc1 [benzene] + Cn1cc[n+](COCCCOC[n+]2ccn(C)c2)c1.N#C[N-]C#N.N#C[N-]C#N | 3.03 ± 0.21 | 3.05 ± 0.21 | 3.08 ± 0.21
c1ccccc1 [benzene] + Cn1cc[n+](COCCCOC[n+]2ccn(C)c2)c1.O=S(=O)([N-]S(=O)(=O)C(F)(F)F)C(F)(F)F.O=S(=O)([N-]S(=O)(=O)C(F)(F)F)C(F)(F)F | 0.94 ± 0.06 | 0.94 ± 0.06 | 0.9 ± 0.06
c1ccccc1 [benzene] + N#C[N-]C#N.N#C[N-]C#N.c1ccc(Cn2cc[n+](COCCCOC[n+]3ccn(Cc4ccccc4)c3)c2)cc1 | 3.09 ± 0.21 | 2.95 ± 0.2 | 2.92 ± 0.2
CCCCO [butan-1-ol] + CCCCCCCCn1cc[n+](COCCC)c1C.O=S(=O)([N-]S(=O)(=O)C(F)(F)F)C(F)(F)F | 5.47 ± 0.37 | 4.33 ± 0.3 | 4.28 ± 0.29
CCCCO [butan-1-ol] + CCCCCCCCn1cc[n+](COCCCOC[n+]2ccn(CCCCCCCC)c2C)c1C.N#C[N-]C#N.N#C[N-]C#N | 7.49 ± 0.51 | 5.96 ± 0.41 | 4.81 ± 0.33
